Laboratory results published in patent US5521199A, “Piperidinyl compounds as neurokinin receptor antagonists” (Zeneca Limited, priority 1993, dated 1996).
Counter-ions that a name gives are not always drawn.

Tests used:
guinea pig trachea = target: T1, guinea pig trachea (Cavia porcellus, UniProt Q64077); experiment: Guinea Pig Trachea Assay (Test B); format: cell-based; details: antagonism of NKA or [β-ala8]-NKA(4-10) contraction; -log molar KB; read-out: pKB (Test B) (converted)
T1 construct: The trachea are removed, trimmed of excess tissue and divided into two segments; from tissue; host or cells: trachea of male guinea pigs, rings in tissue baths
T1 sequence (Q64077 1-402): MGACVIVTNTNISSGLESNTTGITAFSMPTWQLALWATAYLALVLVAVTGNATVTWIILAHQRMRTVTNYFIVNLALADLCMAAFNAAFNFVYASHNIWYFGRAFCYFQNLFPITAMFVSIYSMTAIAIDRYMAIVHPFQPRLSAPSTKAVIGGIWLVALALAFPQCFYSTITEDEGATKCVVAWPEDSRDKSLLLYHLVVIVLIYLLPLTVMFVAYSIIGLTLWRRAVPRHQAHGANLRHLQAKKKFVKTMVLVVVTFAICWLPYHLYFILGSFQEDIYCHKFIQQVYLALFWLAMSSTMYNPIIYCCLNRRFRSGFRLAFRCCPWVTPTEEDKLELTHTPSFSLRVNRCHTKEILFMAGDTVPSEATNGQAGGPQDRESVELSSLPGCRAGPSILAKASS
Protocol: Guinea Pig Trachea Assay (Test B)
In the test described below either NKA or [β-ala^8 ]-NKA(4-10) is used as an agonist. The chosen agonist is referred to as AG throughout the description.
Male guinea pigs are killed by a sharp blow to the back of the head. The trachea are removed, trimmed of excess tissue and divided into two segments. […] Initial tension placed on each tissue is 1 g, which is maintained throughout a 0.5 to 1.5 hour equilibration period before addition of other drugs. Contractile responses are measured on a Grass polygraph via Grass FT-03 force transducers.
Tissues are challenged repetitively with a single concentration of AG (10 nM) with intervening 30 min periods with washing to allow the tension to return to baseline levels. […] Percent inhibition is determined when a Compound produces a statistically significant (p<0.05) reduction of the contraction and is calculated using the second contractile response as 100%.
Potencies of selected Compounds are evaluated by calculating apparent dissociation constants (KB) for each concentration tested using the standard equation: […]
where dose ratio=antilog[(AG -log molar EC50 without Compound)--(AG -log molar EC50 with Compound)]. The KB values may be converted to the negative logarithms and expressed as -log molar KB (i.e. pKB). […] The EC50 values are converted to the negative logarithms and expressed as -log molar EC50. […]

human NK2 receptor = target: T2, human NK2 receptor (Homo sapiens, UniProt P21452); experiment: Neurokinin A (NKA) Receptor-binding Assay (Test A); details: 3H-NKA, MELM, 60 min at 25° C., pH 7.4
T2 sequence (P21452 1-398): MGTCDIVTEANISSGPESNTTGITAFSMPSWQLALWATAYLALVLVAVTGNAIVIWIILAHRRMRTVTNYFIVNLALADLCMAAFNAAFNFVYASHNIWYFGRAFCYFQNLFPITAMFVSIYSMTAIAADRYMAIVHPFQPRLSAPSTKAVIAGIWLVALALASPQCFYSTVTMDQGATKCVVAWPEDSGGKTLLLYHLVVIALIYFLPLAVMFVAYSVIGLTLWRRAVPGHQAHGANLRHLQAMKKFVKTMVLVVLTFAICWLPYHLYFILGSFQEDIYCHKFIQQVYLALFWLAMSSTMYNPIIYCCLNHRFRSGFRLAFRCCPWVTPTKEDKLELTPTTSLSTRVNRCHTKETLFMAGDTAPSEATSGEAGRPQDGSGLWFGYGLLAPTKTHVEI
Protocol: Membrane preparations (MELM) prepared from the MEL cells containing high-affinity NK2 receptors were prepared according to a published protocol (D. Aharony, et al., Neuropeptides (1992) 23, 121-130) with the following minor modifications: (1) Iodoacetamide (1 mM) was included in the homogenization buffer; (2) Homogenization was as published but for a shorter period of 10 seconds once and at a slower speed (setting 10); and (3) The equilibration step with KCl/EDTA was not performed.

NK2 receptor = experiment: Guinea Pig Labored Abdominal Breathing (Dyspnea) Assay (Test C); format: in vivo; details: oral, two hours prior to challenge with the agonist [β-ala8]-NKA(4-10) aerosol; all five animals fully protected
Protocol: Guinea Pig Labored Abdominal Breathing (Dyspnea) Assay (Test C)
Using the clear plastic chamber described previously by Snyder et al. to secure guinea pigs for a head-only aerosol exposure to bronchoconstrictor agonists, agonist is administered by aerosol to six conscious guinea pigs simultaneously during each maneuver. The tachykinin NK2-selective agonist, [β-ala^8 ]-NKA(4-10), 3×10^-5 M, is aerosolized from a Devilbiss Model 25 ultrasonic nebulizer into an air stream entering the chamber at a rate of 2 L/minute.
Guinea pigs (275-400 g) are fasted for approximately 16 hours prior to experimentation. Compounds to be evaluated for blockade of effects of [β-ala^8 ]-NKA(4-10) or their vehicle (10% PEG400 in saline) are administered p.o. or i.v. at various times before aerosol agonist challenge. All animals are pretreated with atropine (10 mg/kg, j.p., 45 minutes pretreatment) indomethacin (10 mg/kg, i.p., 30 minutes pretreatment), propranolol (5 mg/kg, i.p., 30 minutes pretreatment), and thiorphan (1 mg/ml aerosol for 5 minutes, 15 minutes pretreatment)
Aerosol challenge with the agonist produces an initial increase in respiratory rate followed by a decrease with early signs of minor involvement of the abdominal muscles. […] Time, in seconds, from the onset of aerosol challenge to this end point is determined for each animal by using a stopwatch. […]

CC(=O)OCCC1CCN(CCC(CN(C)C(=O)c2ccccc2)c2ccc(Cl)c(Cl)c2)CC1 (centres unmarked) [Example 10, N-[2-(3,4-Dichlorophenyl)-4-[4-(2-acetoxyethyl)piperidino]butyl]-N-methylbenzamide hydrochloride]
Kb (guinea pig trachea): 15.8 nM | Ki (human NK2 receptor): 40 nM

CCC(O)(CC)C1CCN(CC[C@H](CN(C)C(=O)c2ccccc2)c2ccc(Cl)c(Cl)c2)CC1.Cl [Example 16, (S)-N-[2-(3,4-Dichlorophenyl)-4-[4-(1-ethyl-1-hydroxypropyl)piperidino]butyl]-N-methylbenzamide hydrochloride]
Kb (guinea pig trachea): 3.98 nM | protection (Test C) (NK2 receptor): 100% | Ki (human NK2 receptor): 1.5 nM
